Measurements reported in US9365857B2, “Xylose isomerase and xylitol dehydrogenase combination for xylose fermentation to ethanol and B. fragilis xylose isomerase” (Archer Daniels Midland Company, priority 2010, dated 2016).

How the values were obtained:
E. coli xylose isomerase = E. coli xylose isomerase (Escherichia coli, UniProt P00944); experiment: xylitol inhibition of xylose isomerase activity (E. coli XI); format: biochemical; conditions: read-out: E. coli XI activity inhibited
Method: (§1) Activity is reported as the percent of activity obtained in the absence of xylitol.
(§2) A distinguishing feature of the B. fragilis isomerases described herein is that enzymes are less inhibited by xylitol than orthologue XI sequences from other organism. […] ID NO: 4 in comparison to its E. coli orthologue. At 12.5 mM xylitol, the E. coli XI activity is >97% inhibited, in contrast to the B. fragilis XI, which retains at least 30% of its activity at the same xylitol concentration.

[1] = target: T1, B. fragilis xylose isomerase (SEQ. ID NO: 4) (Bacteroides fragilis, UniProt Q5LCV9); experiment: xylitol inhibition of xylose isomerase activity (B. fragilis XI, SEQ. ID NO: 4); format: biochemical; conditions: 12.5 mM xylitol; percent of activity obtained in the absence of xylitol
T1 construct: ID NO: 4 in comparison to its E. coli orthologue
Method: as §1, §2

T1 sequence (Q5LCV9 whole entry, looked up, natural form): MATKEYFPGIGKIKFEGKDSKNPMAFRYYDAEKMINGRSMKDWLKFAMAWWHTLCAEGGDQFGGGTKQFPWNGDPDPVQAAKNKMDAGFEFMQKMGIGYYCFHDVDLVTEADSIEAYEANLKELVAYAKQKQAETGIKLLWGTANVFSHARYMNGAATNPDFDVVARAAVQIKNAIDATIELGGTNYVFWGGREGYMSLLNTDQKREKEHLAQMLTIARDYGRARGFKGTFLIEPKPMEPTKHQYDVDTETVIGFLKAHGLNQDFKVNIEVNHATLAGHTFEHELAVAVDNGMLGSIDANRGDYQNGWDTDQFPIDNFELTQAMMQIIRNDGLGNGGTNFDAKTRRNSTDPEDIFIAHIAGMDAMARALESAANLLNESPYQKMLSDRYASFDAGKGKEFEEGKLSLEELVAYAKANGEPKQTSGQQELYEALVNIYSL
Sequence of E. coli xylose isomerase (P00944 whole entry): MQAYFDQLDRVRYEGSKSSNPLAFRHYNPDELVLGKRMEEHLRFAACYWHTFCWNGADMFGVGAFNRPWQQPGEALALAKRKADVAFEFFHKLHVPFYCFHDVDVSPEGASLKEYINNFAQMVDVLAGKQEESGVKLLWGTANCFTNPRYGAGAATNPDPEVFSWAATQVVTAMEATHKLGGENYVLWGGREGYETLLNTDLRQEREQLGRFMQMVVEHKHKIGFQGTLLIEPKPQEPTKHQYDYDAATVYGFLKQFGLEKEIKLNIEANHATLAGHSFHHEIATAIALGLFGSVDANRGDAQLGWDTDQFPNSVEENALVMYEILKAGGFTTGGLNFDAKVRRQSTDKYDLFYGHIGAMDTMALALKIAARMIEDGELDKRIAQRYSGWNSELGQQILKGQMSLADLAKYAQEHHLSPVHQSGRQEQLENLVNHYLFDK

For `OC[C@@H](O)[C@H](O)[C@@H](O)CO` [xylitol], the inhibition at 12500 µM (E. coli xylose isomerase) was greater than 97% and the “B. fragilis XI activity retained” value [1] was “at least 30%”.
